Reference: patent publication US20250136722A1, “CYTOTOXICITY TARGETING CHIMERAS” (GLAXOSMITHKLINE INTELLECTUAL PROPERTY DEVELOPMENT LIMITED, priority 2021, published 2025)
Values joined by “and” are separate entries in the source; they are usually repeats but may differ in a detail not shown here. Identical values can stand only once.

Columns and labels:
[1] = tested on: Anti-cotinine antibody SEQ ID NO: 11 / SEQ ID NO: 12 (rabbit version); assay: Binding of rabbit anti-cotinine antibody to ARM compounds by SPR, Biacore 8k, 25° C. (Example 202)
Description: (§1) Anti-cotinine antibodies having a heavy chain sequence of SEQ ID NO: 9 and a light chain sequence of SEQ ID NO: 10 (humanized version) or a heavy chain sequence of SEQ ID NO: 11 and a light chain sequence of SEQ ID NO: 12 (rabbit version) were captured via the Fc domain to a protein A or A/G surface on flow cell 2 of a CM5 sensor chip using the Biacore 8k.
(§2) After antibody capture, a 1500 second wait step was included to reduce drift in the binding step. ARM compounds of Formula (I) were then flowed over the captured antibodies at varying top concentrations ranging from 250 nM to 4 μM (see Table 6 below for top concentration values). The top concentration was diluted 4-fold over 5 dilutions (with a 0 nM compound cycle included to blank subtract the data). Association and dissociation times of the ARMs compounds of Formula (I) varied between experiments as follows and indicated in Table 6 below: reference 1—association for 600 seconds and dissociation for 1200 seconds at 20 μl/min; reference 2—association for 240 seconds and dissociation for 300 seconds at 30 μl/min; reference 3—association for 360 seconds and dissociation for 600 seconds at 30 μl/min. Anti-cotinine antibody bound to the protein A or A/G surface was regenerated using 50 mM NaOH. Experiments were run at 25° C. at pH 7.4 using HBS-EP+ buffer using Biacore 8K control software and evaluated using Biacore Insight Evaluation software. Curves were fit with the 1:1 kinetic fit inherent to the software, utilising a local Rmax and local drift setting.
(§3) Anti-cotinine antibody was tested for binding to ARMs compounds of Formula (I) of the invention in the above assay in or more experimental runs and the results are shown in Table 6 below. Affinity is reported as a pKd value. The pKd value is the negative log of the Kd value, wherein the Kd value is the dissociation constant measured in molar (M) as noted above. For compounds tested in more than one experimental run, the pKd value is reported as an average.

[2] = target: T1, CHOK1 cells engineered to overexpress human CCR2 (Homo sapiens, UniProt P41597); assay: Antibody dependent cellular cytotoxicity (ADCC) reporter assay (Example 199); type: cell-based; details: with anti-cotinine antibody SEQ ID NO: 11/12; CHOK1-human CCR2 target cells, Jurkat FcγRIIIa NFAT-luciferase reporter cells; 12-18 hours; read-out: ADCC Reporter Assay pEC50 (converted)
T1 construct: expressed in transfected cells; host or cells: CHOK1 cells
Method in brief: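 Potency is reported as pEC50 from a nonlinear fit, averaged over runs, using luciferase signal divided by that of compound-free wells. The readout comes from NFAT-luciferase Jurkat cells expressing FcγRIIIa, mixed for 12–18 h with human CCR2-overexpressing CHOK1 cells, 1 pM–10 μM ARM compound and 0.01–200 μg/mL Fc-enhanced anti-cotinine IgG1.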

[3] = target: Anti-cotinine antibody SEQ ID NO: 9 / SEQ ID NO: 10 (humanized version); assay: Binding of humanized anti-cotinine antibody to ARM compounds by SPR, Biacore 8k, 25° C. (Example 202); details: top concentration 2.50E−08 M
Description: as §1, §2, §3

CCR2+ expressing cells = assay: Alternative dosing strategy of ARM compound to anti-cotinine antibody, blood concentration and CCR2+ cell depletion (Example 206); type: in vivo; details: co-dosing vs sequential dosing with anti-cotinine antibody, intravenously
Description: FIGS. 3A-3B: Alternative dosing strategy of small molecule ARM compound to anti-cotinine antibody, as described in Example 206, with anti-cotinine antibody and small molecule ARM compound (Example 1) co-dosed or sequentially dosed intravenously;
FIG. 5: Alternative dosing strategy of small molecule ARM compound to anti-cotinine antibody, as described in Example 206, with anti-cotinine antibody administered intravenously and ARM compound (Example 1) administered subcutaneously following a 2-hour delay from antibody dosing at various molar ratios of small molecule ARM: antibody; data shown is blood concentration of small molecule ARM compound at various timepoints following administration.

[4] = reference 3: association 360 s, dissociation 600 s at 30 μl/min, top concentration 2.50E−08 or 6.25E−09 M
[5] = reference 3: association 360 s, dissociation 600 s at 30 μl/min

pKd ([1]; reference 2: association 240 s, dissociation 300 s at 30 μl/min, top concentration 1.00E−06 or 4.00E−06 M) | Structure (SMILES) | ka [1, 4] | kd [1, 4] | pKd [1, 4] | EC50 [2] | kd ([3]; reference 1: association 600 s, dissociation 1200 s at 20 μl/min) | ka [3, 5] | kd [3, 5] | pKd [3, 5] | PD (percent depletion of CCR2+ expressing cells) (CCR2+ expressing cells) | PK (blood concentration of small molecule ARM compound) (CCR2+ expressing cells)
– | CC(C)N(C)[C@@H]1CC[C@H](N2CC[C@H](Nc3ncnc4ccc(C(F)(F)F)cc34)C2=O)[C@H](NC(=O)[C@H]2CC[C@H](NC(=O)CCCO[C@H]3CC[C@H](OCCNC(=O)[C@H]4CC(=O)N(C)[C@@H]4c4cccnc4)CC3)CC2)C1 [Example 1, (2S,3S)-N-(2-(((1R,4S)-4-(4-(((1R,4R)-4-(((1R,2S,5R)-5-(Isopropyl(methyl)amino)-2-((S)-2-oxo-3-((6-(trifluoromethyl)quinazolin-4-yl)amino)pyrrolidin-1-yl)cyclohexyl)carbamoyl)cyclohexyl)amino)-4-oxobutoxy)cyclohexyl)oxy)ethyl)-1-methyl-5-oxo-2-(pyridin-3-yl)pyrrolidine-3-carboxamide] | 5.57e+06 M⁻¹ s⁻¹ | 0.000156 s⁻¹ | 10.55 | 3.25 nM and 6.61 nM | 0.000456 s⁻¹ and 0.000649 s⁻¹ | 1.64e+06 M⁻¹ s⁻¹ | 0.000414 s⁻¹ | 9.6 | unchanged | unchanged
Poor fit | CN1C(=O)C[C@H](C(=O)NCCO[C@H]2CC[C@H](OCCCC(=O)N[C@H]3CC[C@H](C(=O)N[C@@H]4C[C@H](NC(C)(C)C)CC[C@@H]4N4CC[C@H](Nc5ncnc6ccc(C(F)(F)F)cc56)C4=O)CC3)CC2)[C@H]1c1cccnc1 [Example 10] | – | – | – | 3.16 nM | – | 1.42e+06 M⁻¹ s⁻¹ | 0.000484 s⁻¹ | 9.47 | – | –
